Where two headings read alike, the source gives them in different places.
How the values were obtained:
[1] = tested on: inflammatory cells, eosinophils, CD4+ T cells in BALF; experiment: Inflammatory cell numbers in BALF by flow cytometry; assay type: in vivo, ova s/c BALB/c mice; conditions: 100 mg/kg twice daily for 5 days
Protocol: The change of the number of specific immune cells caused by compounds may be investigated in the bronchoalveolar lavage fluid (BALF) of Ova S/C mice. Therefore, a bronchoalveolar lavage may be carried out followed by the lysis of red blood cells. Incubation of cell-type specific antibodies with BALF may allow the quantification of leukocytes such as eosinophils and CD4^+ T-lymphocytes using flow cytometry.
Determination of anti-inflammatory properties of compounds were investigated in an allergen induced mouse model of asthma. At the day of analysis, bronchoalveolar lavage (BAL) was performed with 1 mL of Ca2+ and Mg2+ free PBS. Red blood cells (RBCs) were lysed using BD red blood cell lysis buffer (BD Pharmingen, San Jose, Calif.). BALF was split into four different tubes and non-specific binding to Fc receptors was blocked for 5 minutes using 6 μg/mL of 2.4G2 mouse BD Fc Block™ (BD Pharmingen, San Jose, Calif.). BALF cells were stained for 30 minutes at 4° C. in the dark with 100 μL BSA stain buffer (BD Pharmingen, San Jose, Calif.) containing the final concentrations of the following antibodies: anti-mouse CD45 APC (1:1000, 30-F11, Affymetrix eBiosciences, San Diego, Calif.), FITC rat anti-mouse CD4 (1:500, RM4-5, BD Pharmingen, San Jose, Calif.), PE Rat Anti-Mouse Siglec F (1:500, E50-2440, BD Pharmingen, San Jose, Calif.) and mouse CCR3 PE-conjugated antibody (1:40, 83101, R&D systems Inc, Minneapolis, Minn.). Flow cytometric studies were done using the BD FACS Calibur (BD Pharmingen, San Jose, Calif.) and data analyzed subsequently using Cell Quest pro software (BD Pharmingen, San Jose, Calif.). General gating for immune cells were followed. Total inflammatory cell count was obtained by running all samples on high (60 μL/min) for 180 seconds. The gated anti-mouse CD45 positive events in the fourth channel (FL4) were used to calculate the total inflammatory cell count as cells/mL. The frequencies of CCR3+/Siglec F were used for quantification of eosinophils and CD4+ for CD4+ T cell populations in their respective gates were multiplied by the total inflammatory cell count (cells/mL) to obtain the differential cell population. Statistical analysis: Data were analyzed using GraphPad Prism 4 (GraphPad Software, San Diego, Calif.) and expressed as mean±SEM. One-way analysis of variance (ANOVA) with Dunnet post hoc test or two-way ANOVA with Bonferroni post hoc test were performed for statistical difference for multiple groups. FIGS. 7A-7C show effects of compounds on inflammatory cells. Groups of 10 ova s/c BALB/c mice were administered compounds at 100 mg/kg twice daily for 5 days. BALF was harvested from each animal and used for (A) quantification of total inflammatory cells; (B) eosinophils; (C) CD4^+ T cells. Cells were stained with mouse CD45^+ APC antibody, and samples were analyzed with BD FACS Calibur on high flow rate (60 μl/minute) for 180 seconds. The gated positive events in the fourth channel (FL4) were used to calculate the total inflammatory cell count as cells/ml. Quantification of specific leukocyte population (B) eosinophils (C) CD4^+ T cell populations were stained with specific antibodies and detected by flow cytometry. Data represent mean±SEM from 10 mice in each group. *, **, and *** indicate p<0.05, p<0.01, and p<0.001 significance, respectively, compared to vehicle treated ova s/c BALB/c mice.

[2] = Airway hyperresponsiveness (sRaw) to methacholine in ovalbumin asthma model; assay type: in vivo, ova s/c BALB/c mice; conditions: oral gavage, 100 mg/kg twice daily for 5 days, methacholine challenge
Protocol: Compounds described herein may reduce airway hyperresponsiveness in animal models of asthma. Therefore, mice may be sensitized three times with intra-peritoneal (i.p.) injections of 2 mg/kg/d of ovalbumin (Ova) emulsified in […] on days 0, 7 and 14 in a total volume of 100 μL. In addition, mice may be challenged intra-nasally (i.n.) with 1 mg/kg/d Ova for 5 days from days 23-27. Control mice may be sensitized with Ova and challenged with saline. The airway hyperresponsiveness measurements may be carried out with DSI's Buxco® FinePointe Non-Invasive Airway Mechanics (NAM) instrument consisting of a nasal chamber in combination with the thoracic chamber that allows the computation of specific airway resistance (sRaw). Treated conscious, spontaneously breathing Ova S/C mice may be exposed to aerosolized phosphate buffered saline (PBS) (for the baseline measurement) or methacholine (1.5625-12.5 mg/mL) for 1 minute and readings (sRaw) may be taken and averaged for 3 minutes after each nebulization.
Drug treatment protocol: Sterile solutions of compounds were prepared in 2% hydroxypropyl methylcellulose solution (Sigma-Aldrich, St. Louis, Mo.) and 2.5% polyethylene glycol (Sigma Aldrich, St. Louis, Mo.) for oral administration in a biological safety cabinet. A fine suspension was obtained by grinding the mixture with a mortar and pestle. Drugs were administered individually at 100 mg/kg by oral gavage (200 ul) with 20G gavage needles (Kent Scientific Corporation, Torrington Conn.) to groups of ova s/c BALB/c twice daily for 5 days during the ova challenge period. Mice received a single p.o. dose of the compounds just before airway parameter measurements. Compounds for i.p. injection were prepared in 10% DMSO, 40% propylene glycol, and 50% PBS and given as 100 ul injection. Mice were monitored daily after drug administration. Assessment of Airway hyper-responsiveness: Airway hyper-responsiveness to methacholine in conscious, spontaneously breathing animals was measured by DSI's Buxco® FinePointe Non-Invasive Airway Mechanics (NAM) instrument. Before measurements were taken, mice were acclimated to the chambers 15 minutes daily for 5 days. In addition, an ovalbumin sensitization and challenge protocol consists of randomized male BALB/c mice that were sensitized three times with intra-peritoneal (i.p.) injections of 2 mg/kg/d of ovalbumin (Ova) (Sigma-Aldrich, St. Louis, Mo.) emulsified in 2 mg of Alum (Imject Alum; Thermo Scientific, Pierce, Rockford, Ill.) on days 0, 7 and 14 in a total volume of 100 μL. The mice were then challenged intra-nasally (i.n.) with 1 mg/kg/d Ova for 5 days from days 23-27. Control mice were sensitized with Ova and challenged with saline. The chambers were also calibrated each time before data collection. Briefly, the nasal chamber in combination with the thoracic chamber allows the computation of specific airway resistance (sRaw). The FinePointe software computes specific airway resistance (sRaw) with all other ventilatory parameters derived by the NAM analyzer. Mice were exposed to aerosolized PBS (for the baseline measurement) or methacholine (1.5625-12.5 mg/mL) for 1 minute and readings were taken and averaged for 3 minutes after each nebulization. Data obtained were presented as sRaw versus the methacholine concentration (mg/mL) used to generate the aerosol. FIG. 5A-5F show compound effects on airway hyperresponsiveness. Specific airway resistance (sRaw) was measured at increasing dosages of methacholine by a DSI's Buxco FinePointe non-invasive airway mechanics instrument. Ova s/c BALB/c mice were administered all compounds via oral gavage, 100 mg/kg twice daily for 5 days. Data represent mean±SEM from 10 mice in each group. *, **, and *** indicate p<0.05, p<0.01, p<0.001 significance, respectively, compared to vehicle treated ova s/c BALB/c mice.

[3] = Microsomal stability, human liver microsomes; assay type: in vitro ADME; conditions: 10 μM compound
Protocol: (§1) The metabolic stability of compounds in vivo can be estimated with the stability of compounds in the presence of liver microsomes. Therefore, 4 μL of 1 mM DMSO solution of test compound at a final concentration of 10 μM were preincubated at 37° C. for 5 minutes on a digital heating shaking dry bath (Fischer scientific, Pittsburgh, Pa.) in a mixture containing 282 μL of water, 80 μL of phosphate buffer (0.5 M, pH 7.4) 20 μL of NADPH Regenerating System Solution A (BD Bioscience, San Jose, Calif.) and 4 μL of NADPH Regenerating System Solution B (BD Bioscience, San Jose, Calif.) in a total volume of 391.2 μL. Following preincubation, the reaction was initiated by addition of 8.8 μL of either human liver microsomes (BD Gentest, San Jose, Calif.) or mouse liver microsomes (Life technologies, Rockford, Ill.) at a protein concentration of 0.5 mg/mL. Aliquots of 50 μL were taken at time intervals of 0 (without microsomes), 10, 20, 30, 40, 50 and 60 minutes. Each aliquot was added to 100 μL of cold acetonitrile solution containing 1 μM of verapamil HCL as internal standard. This was followed by sonication for 10 seconds and centrifugation at 10,000 rpm for 5 minutes. 100 μL of the supernatant was transferred into Spin-X HPLC filter tubes (Corning Incorporated, NY) and centrifuged at 13,000 rpm for 5 minutes. The filtrate was diluted 100-fold and subsequently analyzed by LC-MS/MS with Shimadzu LCMS 8040, (Shimadzu Scientific Instruments, Columbia, Md.). The ratio of the peak areas of the internal standard and test compound was calculated for every time point and the natural log of the ratio were plotted against time to determine the linear slope (k). The metabolic rate (k*C0/C), half-life (0.693/k), and […] (V*k) were calculated, where k is the slope, C0 is the initial concentration of test compound, C is the concentration of microsomes, and V is the volume of incubation in μL per microsomal protein in mg. All experiments were repeated two time in triplicates.

[4] = tested on: HEK293; experiment: Cytotoxicity, CellTiter-Glo cell viability assay, kidney cells; assay type: cell-based, human
Protocol: The cytotoxicity of compounds may be evaluated by treating HEK293 human embryonic kidney cells with increasing concentrations of compounds for 24-48 hours followed by the quantification of living cells using Cell-Titer Glo (Promega).
Compounds with increased cytotoxicity can be identified using an in vitro cytotoxicity assay. Therefore, human embryonic kidney 293T (HEK293T) cell lines were purchased (ATCC) and cultured in 75 cm2 flasks (CellStar). Cells were grown in DMEM/High Glucose (Hyclone, #SH3024301) media to which non-essential amino acids (Hyclone, #SH30238.01), 10 mM HEPES (Hyclone, #SH302237.01), 5×106 units of penicillin and streptomycin (Hyclone, #SV30010), and 10% of heat inactivated fetal bovine serum (Gibco, #10082147) were added. Cells were harvested using 0.05% Trypsin (Hyclone, #SH3023601). The cell viability assay was evaluated using CellTiter-Glo™ Luminescent Cell Viability Assay Kit (Promega, Madison, Wis.), which contains luciferase and all its substrate except ATP. The controls for the cytotoxicity assay used were (E)-10-(bromotriphenylphosphoranyl)decyl 4-(4-(tert-butyl)phenyl)-4-oxobut-2-enoate (400 μM in DMSO, positive control) and DMSO (negative control). All luminescence readings were performed on a Tecan Infinite M1000 plate reader. Small volume transfers were performed on the Tecan Freedom EVO liquid handling system with a 100 nL pin tool transfer (V&P Scientific). Serial dilutions were done in 96-well polypropylene plates (Corning, #3365) and assays were conducted in 384-well white optical bottom plates. The assays were carried out in quadruplet in three independent runs. The data were normalized to the controls and if possible analyzed by nonlinear regression (GraphPad Prism).

[5] = tested on: HEPG2; experiment: Cytotoxicity, liver cells; assay type: cell-based, human
[6] = Microsomal stability, mouse liver microsomes; assay type: in vitro ADME; conditions: 10 μM compound
Protocol: as §1

[7] = Pharmacokinetic analysis in blood, lungs and brain; conditions: mouse, 25 mg/kg oral gavage
[8] = tested on: guinea pig airway smooth muscle; experiment: Relaxation of substance P contracted guinea pig tracheal rings; design: dose or concentration left out as unconfirmed

Structure (SMILES): C[C@H]1N=C(c2ccccc2F)c2cc(C3CC3)ccc2-n2cnc(C(=O)O)c21 [GL-III-43, (R)-8-cyclopropyl-6-(2-fluorophenyl)-4-methyl-4H-benzo[f]imidazo[1,5-a][1,4]diazepine-3-carboxylic acid]
- numbers of inflammatory cells in BALF [1]: did not modulate the numbers of inflammatory cells
- airway hyperresponsiveness (sRaw) [2]: not able to alleviate airway hyperresponsiveness

Structure (SMILES): CC(C)(C)OC(=O)c1ncn2c1[C@@H]1CCCN1C(=O)c1cc(O)ccc1-2 [RJ-02-67, tert-butyl (S)-7-hydroxy-9-oxo-11,12,13,13a-tetrahydro-9H-benzo[e]imidazo[5,1-c]pyrrolo[1,2-a][1,4]diazepine-1-carboxylate]
- HLM % remaining after 60 min [3]: 90.6 ± 0.2%
- LD50 HEK293 (Kidney) ([4]; human, HEK293 (HEK293T) human embryonic kidney cells): >400 µM
- LD50 HEPG2 (Liver) ([5]; human, HepG2 liver cells): >400 µM
- MLM % remaining after 60 min [6]: 46.6 ± 0.3%

Structure (SMILES): COc1ccc2c(c1)C(=O)N1CCC[C@H]1c1c(-c3nnn[nH]3)ncn1-2 [RJ-03-57, (S)-7-methoxy-1-(1H-tetrazol-5-yl)-11,12,13,13a-tetrahydro-9H-benzo[e]imidazo[5,1-c]pyrrolo[1,2-a][1,4]diazepin-9-one]
- HLM % remaining after 60 min [3]: 94.3 ± 0.1%
- LD50 HEK293 (Kidney) [4]: >200 µM
- absorption [7]: moderate absorption
- clearance [7]: fast clearance
- LD50 HEPG2 (Liver) [5]: >200 µM
- airway hyperresponsiveness (sRaw) [2]: not able to alleviate airway hyperresponsiveness
- airway smooth muscle contractile force, guinea pig tracheal rings [8]: All investigated compounds except RJ-03-57 reduced the constriction of airway smooth muscle
- MLM % remaining after 60 min [6]: 98.3 ± 0.2%

Structure (SMILES): O=C(O)c1ncn2c1[C@@H]1CCCN1C(=O)c1cc(O)ccc1-2 [RJ-03-90, (S)-7-hydroxy-9-oxo-11,12,13,13a-tetrahydro-9H-benzo[e]imidazo[5,1-c]pyrrolo[1,2-a][1,4]diazepine-1-carboxylic acid]
- numbers of inflammatory cells in BALF [1]: did not modulate the numbers of inflammatory cells
